Consider eight compounds from patent US20240090497A1, “SURFACTANT BLENDS FOR HYPOHALITE-BASED DISINFECTING COMPOSITIONS” (GOJO Industries, Inc., priority 2022, published 2024).

The nature of this data set: Surface tension of hypohalite-based disinfecting compositions, Wilhelmy plate method. Particulars: hypohalite-based disinfecting composition with this surfactant alone (0% or 100% point of the blend plot). The class given is physicochemical. As for the experimental part: Various combinations of surfactants were tested with respect to the surface tension of hypohalite-based disinfecting compositions comprising the surfactant blend. Specifically, exemplary blends were prepared using varying surfactants having an average tail chain length of a C10 to C14 value. The surfactant blends were tested at varying molar ratios.
Accordingly, each surfactant blend comprised a first surfactant having a first surfactant surface tension T^1 and a second surfactant having a second surfactant surface tension T^2. The respective overall surface tension T for each surfactant blend was thereafter tested, using the Wilhelmy plate method.
Consider laureth-6, for which the “individual surfactant surface tension” value worked out at 29.7 mN/m.
Turning to myristamine oxide, the “individual surfactant surface tension” value was found to be 32.1 mN/m.
As for `CCCCCCCCCCO[C@@H]1O[C@H](CO)[C@@H](O)[C@H](O)[C@H]1O` [decyl glucoside], the figure is 28.7 mN/m; as for `CCCCCCCCCCCCOS(=O)(=O)[O-].[Na+]` [sodium lauryl sulfate], 29.7 mN/m; as for lauramine oxide, 32.4 mN/m.
Consider cocobetaine, for which the “individual surfactant surface tension” value worked out at 34.7 mN/m.
As to undeceth-3, the “individual surfactant surface tension” value is given as 26.9 mN/m.
Regarding `CCCCCCCCCCCCCCOS(=O)(=O)[O-].[Na+]` [sodium myristyl sulfate], the “individual surfactant surface tension” value turned out to be 39.8 mN/m.
